What was measured:
[1] = system: A. flavus ATCC 204304; assay: Broth microdilution antifungal susceptibility, NCCLS M38-A; assay type: cell-based, Aspergillus flavus; conditions: minimal concentration inhibiting >95% growth; average of at least two assays (except I-l and I-x)
[2] = system: A. fumigatus ATCC 204305; assay: as above; assay type: cell-based, Aspergillus fumigatus; conditions: minimal concentration inhibiting >95% growth; average of at least two assays (except I-l and I-x)

| Compound | MIC0 A. flavus ATCC 204304 [1] [µg/mL] | MIC0 A. fumigatus ATCC 204305 [2] [µg/mL] |
| --- | --- | --- |
| CC[C@H]1O[C@@H](/C(C)=C/[C@H](C)/C=C/[C@H]2[C@@H](C)[C@@H]2/C=C/[C@@H]2O[C@H](CC(=O)O)C[C@H](N(C)Cc3nccs3)[C@H]2O)CC=C1C [I-x, (5S,6R)-5-(N-(2-thiazolyl)methyl-methylamino)-6-hydroxypolyangioic acid] | 4 | 2 |
| CC[C@H]1O[C@@H](/C(C)=C/[C@H](C)/C=C/[C@H]2[C@@H](C)[C@@H]2/C=C/[C@@H]2O[C@H](CC=NO)C[C@H](NC)[C@H]2O)CC=C1C [I-zz, (5S,6R)-5-methylamino-6-hydroxypolyangial oxime] | 8 | 12 |
| CC[C@H]1O[C@@H](/C(C)=C/C/C=C/[C@H]2[C@@H](C)[C@@H]2/C=C/[C@@H]2O[C@H](CC(=O)O)C[C@H](N(C)C)[C@H]2O)CC=C1C [II-a, (5S,6R)-5-dimethylamino-6-hydroxy-15-desmethylpolyangioic acid] | 0.92 | 0.6 |
| CC[C@H]1O[C@@H](/C(C)=C/C/C=C/[C@H]2[C@@H](C)[C@@H]2/C=C/[C@@H]2O[C@H](CCO)C[C@H](N(C)C)[C@H]2O)CC=C1C [II-b, (5S,6R)-5-dimethylamino-15-desmethylpolyangi-1,6-diol] | 8 | 8 |
| CC1=CC[C@H](/C(C)=C/[C@H](C)/C=C/[C@H]2[C@@H](C)[C@@H]2/C=C/[C@@H]2O[C@H](CC(=O)O)C[C@H](N(C)C)[C@H]2O)O[C@@H]1C [III-a, 24-norambruticin VS-3] | 1.6 | 0.71 |
| CC[C@H]1O[C@@H](/C(C)=C/[C@H](C)/C=C/[C@H]2[C@@H](C)[C@@H]2/C=C/[C@@H]2O[C@H](CCO)C[C@H](N(C)C)[C@H]2O)CCC1C (stereo partly shown) [IV-c] | 2 | 2 |
| CC[C@H]1O[C@@H](/C(C)=C/[C@H](C)/C=C/[C@H]2[C@@H](C)[C@@H]2/C=C/[C@@H]2O[C@H](CC(=O)O)C[C@H](NC(C)C)[C@H]2O)CCC1C (stereo partly shown) [IV-d] | 0.88 | 2.5 |
| (5S,6R,16R,17R)-5-amino-6-hydroxy-16,17-epxoy-16,17-dihydropolyangioic acid [V-c] | 16 | 8 |
| (5S,6R,16S,17S)-5-amino-6-hydroxy-16,17-epxoy-16,17-dihydropolyangioic acid [V-d] | >32 | >32 |
| methyl (5S,6R,16R,17R)-5-tert-butoxycarbonylamino-6-hydroxy-16,17-epxoy-16,17-dihydropolyangiate [V-a] | >32 | >32 |
| methyl (5S,6R,16S,17S)-5-tert-butoxycarbonylamino-6-hydroxy-16,17-epxoy-16,17-dihydropolyangiate [V-b] | >32 | >32 |

Reference: patent US20070015823A1, “Ambruticin VS compounds” (priority 2004, published 2007)
